# Measured values: patent US20230295162A1 (EÖTVÖS LORÁND TUDOMÁNYEGYETEM, priority 2020, published 2023)
# Columns and labels:
# [1] = test system: PC3 human prostate cancer cell line; experiment: CellTiter-Glo IC50 (Example 19); type: cell-based; details: 72 h
# Experimental: (§1) Some representative imipridones and ONC212 as reference were further tested on the following human malignant cell lines: PC3 and LNCap (prostate carcinoma); BxPC3, MiaPaCa2 and Panc1 (pancreatic cancer); A549, HCC827, H1993 and H520 (lung carcinoma); MDA-MB-453 and MDA-MB-231 (breast cancer) (see Table 2 and FIGS. 1-11).
# (§2) Cell lines were maintained according to the instructions provided by ATCC (https://www.lgcstandards-atcc.org/) in a 5% CO2 humidified incubator maintained at 37° C. temperature. Effects of compounds on cell viability were measured via CellTiter-Glo® luminescent cell viability assay (Promega, Madison, WI, USA) Cells were plated at 1000 cells/well onto a flat-bottomed, white 96 well plate (BRANDplates, cat. no.: 781965). […] After the treatment, medium was removed and CellTiter-Glo® reagent was added. The luminescence signal was recorded using a microplate reader (BioTek Synergy 2 Multi-Mode Reader, BioTek, Winooski, VT, USA).
# (§3) Cell viability data (% of untreated control cells) was evaluated with Microsoft Excel. Dose-response curves (using a non-linear regression model, log (inhibitor) vs response, variable slope) were generated and IC50 values were determined using Graph Pad Prism 5.02 software (GraphPad Software, San Diego, CA, USA).
# [2] = test system: LNCap human prostate cancer cell line; experiment: CellTiter-Glo IC50 (Example 19); type: cell-based; details: 72 h
# Experimental: as §1, §2, §3
# [3] = test system: HCC827 lung carcinoma cell line; experiment: CellTiter-Glo IC50 (Example 19); type: cell-based; details: Homo sapiens, 72 h
# Experimental: as §1, §2, §3
# [4] = test system: BxPC3 pancreatic cancer cell line; experiment: CellTiter-Glo IC50 (Example 19); type: cell-based; details: Homo sapiens, BXPC-3, 72 h
# Experimental: as §1, §2, §3
# [5] = test system: MiaPaCa2 pancreatic cancer cell line; experiment: CellTiter-Glo IC50 (Example 19); type: cell-based; details: Homo sapiens, MIA PaCa-2, 72 h
# Experimental: as §1, §2, §3
# [6] = test system: Panc1 pancreatic cancer cell line; experiment: CellTiter-Glo IC50 (Example 19); type: cell-based; details: Homo sapiens, PANC-1, 72 h
# Experimental: as §1, §2, §3
# [7] = test system: A549 lung carcinoma cell line; experiment: CellTiter-Glo IC50 (Example 19); type: cell-based; details: Homo sapiens, 72 h
# Experimental: as §1, §2, §3
# [8] = test system: H520 lung carcinoma cell line; experiment: CellTiter-Glo IC50 (Example 19); type: cell-based; details: Homo sapiens, NCI-H520, 72 h
# Experimental: as §1, §2, §3
# [9] = test system: H1993 lung carcinoma cell line; experiment: CellTiter-Glo IC50 (Example 19); type: cell-based; details: Homo sapiens, NCI-H1993, 72 h
# Experimental: as §1, §2, §3
# SCC-25 cell line = experiment: Additional in vitro IC50 tests (Table 3); type: cell-based; details: Homo sapiens
# Experimental: as §2, §3
# Detroit 562 cell line = experiment: Additional in vitro IC50 tests (Table 3); type: cell-based; details: Homo sapiens
# Experimental: as §2, §3
# EBC-1 cell line = experiment: Additional in vitro IC50 tests (Table 3); type: cell-based; details: Homo sapiens
# Experimental: as §2, §3
# H2228 cell line = experiment: Additional in vitro IC50 tests (Table 3); type: cell-based; details: Homo sapiens, NCI-H2228
# Experimental: as §2, §3
# Fadu cell line = experiment: Additional in vitro IC50 tests (Table 3); type: cell-based; details: Homo sapiens
# Experimental: as §2, §3
# [10] = test system: MDA-MB-231 breast cancer cell line; experiment: CellTiter-Glo IC50 (Table 3); type: cell-based; details: Homo sapiens
# Experimental: as §1, §2, §3
# [11] = test system: MDA-MB-453 breast cancer cell line; experiment: CellTiter-Glo IC50 (Table 3); type: cell-based; details: Homo sapiens
# Experimental: as §1, §2, §3
# [12] = test system: PANC-1 (human pancreatic carcinoma) cells; experiment: Impedance-based viability assay (xCELLigence SP), long treatment; type: cell-based; details: 72 h, read-out: cytotoxicity expressed in IC50, PANC-1
# Excerpt: (Gibco®/Invitrogen Corporation, New York, NY, USA).
# Data obtained from each experiment represent mathematical averages.
# [13] = test system: H2228 lung cancer cell line; experiment: High-throughput screening, CellTiter-Glo cell viability assay at 100 nM; type: cell-based, human; details: Homo sapiens, NCI-H2228, HTS, compounds at 100 nM, 72 h, read-out: cytotoxicity expressed in IC50, H2228 (results of High throughput screening)
# [14] = test system: EBC-1 lung cancer cell line; experiment: as above; type: cell-based, human; details: Homo sapiens, EBC-1, HTS, compounds at 100 nM, 72 h, read-out: cytotoxicity expressed in IC50, EBC-1 (results of High throughput screening)
# [15] = test system: representative cell lines; experiment: Cytotoxicity on representative cell lines (summary statement); type: cell-based; details: Homo sapiens; summary range, ca.
smiles,measurement,setting,value
"O=C1C2=C(CCN(Cc3cc(F)cc(F)c3)C2)N2CCN=C2N1Cc1ccc(Br)cc1 [I/39, 4-(4-Bromobenzyl)-7-(3,5-difluorobenzyl)-2,4,6,7,8,9-hexahydroimidazo[1,2-a]pyrido[3,4-e]pyrimidin-5(1H)-one]",IC50,[1],2 nM
same,IC50,[2],2 nM
same,IC50,[3],4 nM
same,IC50,[4],3 nM
same,IC50,[5],4 nM
same,IC50,[6],4 nM
same,IC50,[7],4 nM
same,IC50,[8],3 nM
same,IC50,[9],3 nM
same,melting point,,173.5 °C
same,IC50,SCC-25 cell line,7 nM
same,IC50,Detroit 562 cell line,3 nM
same,IC50,EBC-1 cell line,4 nM
same,IC50,H2228 cell line,6 nM
same,IC50,Fadu cell line,5 nM
same,IC50,[10],< 1 nM
same,IC50,[11],< 1 nM
same,IC50,[12],3 nM
same,IC50,[13],< 100 nM
same,IC50,[14],< 100 nM
same,IC50,[15],3 to 8 nM
